According to US12421242B2, “Substituted tetrahydropyrrolo-pyridinone compounds and their use in treating medical conditions” (Karuna Therapeutics, Inc., priority 2022, dated 2025):
pEC50: −log10 of the molar value.

Assays:
[1] = target: T1, human M4 receptor (Homo sapiens, UniProt P08173); experiment: M4 GTPγS PAM assay; assay type: biochemical; settings: CHO-K1 membranes expressing human M4, with EC20 acetylcholine (40 nM)
T1 construct: expressed in transfected cells
T1 sequence (P08173 1-479): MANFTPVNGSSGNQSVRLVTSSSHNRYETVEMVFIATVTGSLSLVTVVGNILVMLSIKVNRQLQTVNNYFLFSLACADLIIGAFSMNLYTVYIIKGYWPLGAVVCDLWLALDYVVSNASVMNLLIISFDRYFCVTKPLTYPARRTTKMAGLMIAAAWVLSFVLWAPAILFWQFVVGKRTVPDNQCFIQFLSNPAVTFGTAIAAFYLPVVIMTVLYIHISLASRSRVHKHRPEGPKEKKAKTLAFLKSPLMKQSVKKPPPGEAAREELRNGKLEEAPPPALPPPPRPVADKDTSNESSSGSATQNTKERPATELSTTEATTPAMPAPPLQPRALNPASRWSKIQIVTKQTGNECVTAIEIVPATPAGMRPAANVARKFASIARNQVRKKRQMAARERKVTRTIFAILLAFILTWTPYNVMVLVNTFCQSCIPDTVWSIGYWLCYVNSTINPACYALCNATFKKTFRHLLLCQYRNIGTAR
Procedure, shortened: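 Membranes from CHO-K1 cells stably expressing human M4 preincubated 10-15 min with compound in HEPES/MgCl2/NaCl buffer with 0.1 µM GDP, then with EC20 acetylcholine (40 nM) for 10-15 min. [35S]GTPγS added for 1 h at room temperature; filter-bound radioactivity counted by scintillation.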

[2] = target: T2, hM4 receptors (Homo sapiens, UniProt P08173); experiment: Human M4 PAM pERK assay; assay type: cell-based; settings: PAM mode
T2 construct: expressed in transfected cells; host or cells: CHO cells
T2 sequence (P08173 1-479): T1 sequence (P08173 1-479)
Procedure, shortened: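 CHO cells expressing hM4 or rM4 were serum-starved 4 h, then given compound (ten-point curve, 10 μM top, duplicate) with an EC20 of acetylcholine (10 nM final) for 5 min at 37° C. Phospho-ERK in lysates was detected by TR-FRET.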

Structure (SMILES)	pEC50 [1]	pEC50 [2]
COc1c2c(n(C)c(=O)c1C)CN(C(=O)c1cnn(C(F)(F)F)c1)C2 [Compound I-87]	6.30 to 7.00	> 7.00
Cc1c2c(n(C)c(=O)c1Cl)CN(C(=O)c1cnn(C(F)(F)F)c1)C2 [Compound I-1, 3-chloro-1,4-dimethyl-6-(1-(Trifluoromethyl)-1H-pyrazole-4-carbonyl)-1,5,6,7-tetrahydro-2H-pyrrolo[3,4-b]pyridin-2-one]	6.30 to 7.00	> 7.00
Cc1c2c(n(C)c(=O)c1Cl)CN(C(=O)c1cnn(C(F)(F)F)c1)[C@@H]2C [Compound I-76, (R)-3-Chloro-1,4,5-trimethyl-6-(1-(trifluoromethyl)-1H-pyrazole-4-carbonyl)-1,5,6,7-tetrahydro-2H-pyrrolo[3,4-b]pyridin-2-one]	> 7.00	> 7.00
